# Test results reported in paper PMC8541633, “A Novel Statin Compound from Monacolin J Produced Using CYP102A1-Catalyzed Regioselective C-Hydroxylation” (Pharmaceuticals, 2021).
# Columns and labels:
# HMG-CoA reductase = biological target: T1, HMG-CoA reductase (Homo sapiens, UniProt P04035); assay: HMG-CoA reductase assay kit (Sigma-Aldrich), spectrophotometry at […] nm; assay type: biochemical
# T1 construct: gene HMGCR
# T1 sequence (P04035 1-888): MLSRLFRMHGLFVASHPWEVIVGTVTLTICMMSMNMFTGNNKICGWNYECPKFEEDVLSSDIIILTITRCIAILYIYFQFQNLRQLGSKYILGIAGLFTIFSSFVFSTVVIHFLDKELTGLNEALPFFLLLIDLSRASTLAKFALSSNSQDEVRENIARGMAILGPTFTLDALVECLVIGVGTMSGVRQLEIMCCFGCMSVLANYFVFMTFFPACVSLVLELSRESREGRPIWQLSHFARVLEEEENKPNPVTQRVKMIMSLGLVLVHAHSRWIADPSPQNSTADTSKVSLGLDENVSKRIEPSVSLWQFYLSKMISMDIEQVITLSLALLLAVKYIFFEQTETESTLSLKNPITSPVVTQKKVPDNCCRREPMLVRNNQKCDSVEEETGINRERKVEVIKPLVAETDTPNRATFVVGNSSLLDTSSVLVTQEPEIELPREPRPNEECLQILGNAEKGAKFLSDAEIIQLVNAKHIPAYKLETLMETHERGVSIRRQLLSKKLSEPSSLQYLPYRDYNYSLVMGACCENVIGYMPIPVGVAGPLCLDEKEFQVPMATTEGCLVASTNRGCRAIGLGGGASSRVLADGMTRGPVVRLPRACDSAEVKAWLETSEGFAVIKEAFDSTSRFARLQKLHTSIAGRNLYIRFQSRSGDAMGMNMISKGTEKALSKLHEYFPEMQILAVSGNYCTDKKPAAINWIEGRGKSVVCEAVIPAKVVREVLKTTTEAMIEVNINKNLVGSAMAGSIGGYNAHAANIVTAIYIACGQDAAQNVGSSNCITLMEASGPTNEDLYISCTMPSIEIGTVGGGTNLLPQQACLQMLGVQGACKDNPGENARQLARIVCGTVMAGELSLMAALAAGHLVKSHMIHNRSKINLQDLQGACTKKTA
# CYP3A4 = biological target: T2, CYP3A4 (Homo sapiens, UniProt P08684); assay: hydroxylation by recombinant CYP3A4 membranes, HPLC and LC-MS (turnover rate); assay type: biochemical
# T2 construct: recombinant, E. coli membrane fractions; with rat NADPH-P450 reductase (CPR)
# T2 sequence (P08684 2-503): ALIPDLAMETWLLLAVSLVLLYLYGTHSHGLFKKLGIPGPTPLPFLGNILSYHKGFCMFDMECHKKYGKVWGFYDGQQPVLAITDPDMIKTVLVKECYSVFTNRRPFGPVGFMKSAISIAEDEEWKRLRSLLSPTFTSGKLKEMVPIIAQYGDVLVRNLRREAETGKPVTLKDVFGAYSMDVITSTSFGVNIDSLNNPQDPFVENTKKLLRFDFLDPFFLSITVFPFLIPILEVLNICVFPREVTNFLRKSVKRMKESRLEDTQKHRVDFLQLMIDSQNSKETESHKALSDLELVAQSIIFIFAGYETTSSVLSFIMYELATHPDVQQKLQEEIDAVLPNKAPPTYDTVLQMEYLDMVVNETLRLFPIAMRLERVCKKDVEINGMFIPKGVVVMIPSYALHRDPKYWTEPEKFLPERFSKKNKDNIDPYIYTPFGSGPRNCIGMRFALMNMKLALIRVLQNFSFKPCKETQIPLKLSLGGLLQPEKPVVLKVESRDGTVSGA
# T2 sequence (P00388 2-678, further chain): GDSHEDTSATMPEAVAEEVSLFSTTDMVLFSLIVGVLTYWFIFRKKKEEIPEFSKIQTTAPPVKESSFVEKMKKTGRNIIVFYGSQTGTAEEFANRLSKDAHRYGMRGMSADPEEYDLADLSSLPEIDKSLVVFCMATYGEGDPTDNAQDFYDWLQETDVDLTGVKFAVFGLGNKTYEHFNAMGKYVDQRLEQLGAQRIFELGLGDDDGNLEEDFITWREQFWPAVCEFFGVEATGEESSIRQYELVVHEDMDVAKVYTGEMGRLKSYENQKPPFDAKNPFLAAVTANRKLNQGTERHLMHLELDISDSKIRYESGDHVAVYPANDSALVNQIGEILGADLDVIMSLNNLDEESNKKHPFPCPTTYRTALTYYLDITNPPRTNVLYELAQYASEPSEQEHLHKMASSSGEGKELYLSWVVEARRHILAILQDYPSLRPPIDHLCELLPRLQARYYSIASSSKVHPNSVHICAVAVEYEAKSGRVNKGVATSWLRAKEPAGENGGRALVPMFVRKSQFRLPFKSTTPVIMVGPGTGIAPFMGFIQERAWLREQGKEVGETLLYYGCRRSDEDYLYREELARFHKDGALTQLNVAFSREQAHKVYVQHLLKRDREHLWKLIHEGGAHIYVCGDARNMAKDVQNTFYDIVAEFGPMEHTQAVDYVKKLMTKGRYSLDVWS
SMILES,IC50 (HMG-CoA reductase),"hydroxylation by recombinant CYP3A4 membranes, HPLC and LC-MS (turnover rate) (CYP3A4)"
C[C@H]1C=CC2=C[C@H](CO)C[C@H](O)[C@@H]2[C@H]1CC[C@@H]1C[C@@H](O)CC(=O)O1 [6′a-hydroxymethyl monacolin J],285 µM,
C[C@H]1C=C2C=C[C@H](C)[C@H](CC[C@@H]3C[C@@H](O)CC(=O)O3)[C@H]2[C@@H](O)C1 [monacolin J],,0.040 nmol product min^−1 nmol P450^−1
